In this assay the target is N-type calcium channel (α1B (Cav2.2), β3 and α2δ subunits) in stable HEK cell line (Homo sapiens (Human), UniProt Q00975). In words: Functional assay (FDSS calcium mobilization): antagonism of N-type calcium channel. Format: cell-based. To be noted: for IC50: KCl (50 mM) depolarization, six-point concentration-response; for inhibition at 0.33 µM: HEK293. As for the experimental part:
A stable cell line (HEK parent) co-expressing the α1B (Cav2.2), β3 and α2δ subunits of the N-type calcium channel subunits was used. These cells were routinely grown as monolayers in low glucose-containing Dulbecco's Modified Eagle Medium supplemented with 10% FBS, 2 mM L-glutamine, 100 I.U./mL penicillin, 100 μg/mL streptomycin, 400 μg/mL G418 and 200 μg/mL Zeocin (split ratio=1:5). Cells were maintained in 5% CO2 at 37° C. Compounds of Formula (I) were prepared as 10 mM stocks in DMSO from neat compound, if available. Otherwise, the 5 or 10 mM DMSO stock solutions provided in-house were used.
Calcium mobilization responses to KCl depolarization were evaluated by measuring the intensity of calcium-mediated fluorescent signal in the presence of BD Calcium Assay Dye (BD Biosciences, Franklin Lakes, N.J., U.S.A.), utilizing a Functional Drug Screening System (FDSS) by Hamamatsu Corporation (Bridgewater, N.J. U.S.A.).
Twenty-four hr prior to assay, cells were seeded in clear-base poly-D-lysine-coated 384-well plates (BD Biosciences) at a density of 5,000 cells per well in culture medium and grown overnight in 5% CO2 at 37° C. On the day of assay, growth media were removed, and cells were loaded with BD calcium assay dye (BD Biosciences) for 35 min at 37° C. under 5% CO2 and then for 25 min at room temp. Utilizing the FDSS, cells were exposed to representative compounds of Formula (I) at varying concentrations, and intracellular calcium was measured for 5 min prior to the addition of 50 mM KCl for an additional 3 min of measurement.
IC50 values for representative compounds of Formula (I) were determined from six-point concentration-response experiments and represent the concentration of said compound required to inhibit 50% of the maximal response. Maximal fluorescence intensity (FI) achieved upon addition of 50 mM KCl was exported from the FDSS software and further analyzed using GraphPad Prism 3.02 (Graph Pad Software Inc., San Diego, Calif., U.S.A.). Data were normalized to the maximum average counts from quadruplicate wells for each condition in the presence of 50 mM KCl and to the minimum average counts in the presence of buffer. Theoretical curves were generated using nonlinear regression curve-fitting analysis of either sigmoidal concentration-response or sigmoidal concentration-response (variable slope), and the IC50 values with the best-fit curve determined by GraphPad Prism were reported.
In general terms: A change in cytosolic calcium serves as a functional read-out for many receptors and channels.

Experimental findings from patent US9434693B2, “Substituted pyrazoles as N-type calcium channel blockers” (Janssen Pharmaceutica NV, priority 2012, dated 2016) are described below.

Structures can show the parent of a compound that is named as a salt.

N-type calcium channel (α1B (Cav2.2), β3 and α2δ subunits) in stable HEK cell line, sequence (Q00975 whole entry): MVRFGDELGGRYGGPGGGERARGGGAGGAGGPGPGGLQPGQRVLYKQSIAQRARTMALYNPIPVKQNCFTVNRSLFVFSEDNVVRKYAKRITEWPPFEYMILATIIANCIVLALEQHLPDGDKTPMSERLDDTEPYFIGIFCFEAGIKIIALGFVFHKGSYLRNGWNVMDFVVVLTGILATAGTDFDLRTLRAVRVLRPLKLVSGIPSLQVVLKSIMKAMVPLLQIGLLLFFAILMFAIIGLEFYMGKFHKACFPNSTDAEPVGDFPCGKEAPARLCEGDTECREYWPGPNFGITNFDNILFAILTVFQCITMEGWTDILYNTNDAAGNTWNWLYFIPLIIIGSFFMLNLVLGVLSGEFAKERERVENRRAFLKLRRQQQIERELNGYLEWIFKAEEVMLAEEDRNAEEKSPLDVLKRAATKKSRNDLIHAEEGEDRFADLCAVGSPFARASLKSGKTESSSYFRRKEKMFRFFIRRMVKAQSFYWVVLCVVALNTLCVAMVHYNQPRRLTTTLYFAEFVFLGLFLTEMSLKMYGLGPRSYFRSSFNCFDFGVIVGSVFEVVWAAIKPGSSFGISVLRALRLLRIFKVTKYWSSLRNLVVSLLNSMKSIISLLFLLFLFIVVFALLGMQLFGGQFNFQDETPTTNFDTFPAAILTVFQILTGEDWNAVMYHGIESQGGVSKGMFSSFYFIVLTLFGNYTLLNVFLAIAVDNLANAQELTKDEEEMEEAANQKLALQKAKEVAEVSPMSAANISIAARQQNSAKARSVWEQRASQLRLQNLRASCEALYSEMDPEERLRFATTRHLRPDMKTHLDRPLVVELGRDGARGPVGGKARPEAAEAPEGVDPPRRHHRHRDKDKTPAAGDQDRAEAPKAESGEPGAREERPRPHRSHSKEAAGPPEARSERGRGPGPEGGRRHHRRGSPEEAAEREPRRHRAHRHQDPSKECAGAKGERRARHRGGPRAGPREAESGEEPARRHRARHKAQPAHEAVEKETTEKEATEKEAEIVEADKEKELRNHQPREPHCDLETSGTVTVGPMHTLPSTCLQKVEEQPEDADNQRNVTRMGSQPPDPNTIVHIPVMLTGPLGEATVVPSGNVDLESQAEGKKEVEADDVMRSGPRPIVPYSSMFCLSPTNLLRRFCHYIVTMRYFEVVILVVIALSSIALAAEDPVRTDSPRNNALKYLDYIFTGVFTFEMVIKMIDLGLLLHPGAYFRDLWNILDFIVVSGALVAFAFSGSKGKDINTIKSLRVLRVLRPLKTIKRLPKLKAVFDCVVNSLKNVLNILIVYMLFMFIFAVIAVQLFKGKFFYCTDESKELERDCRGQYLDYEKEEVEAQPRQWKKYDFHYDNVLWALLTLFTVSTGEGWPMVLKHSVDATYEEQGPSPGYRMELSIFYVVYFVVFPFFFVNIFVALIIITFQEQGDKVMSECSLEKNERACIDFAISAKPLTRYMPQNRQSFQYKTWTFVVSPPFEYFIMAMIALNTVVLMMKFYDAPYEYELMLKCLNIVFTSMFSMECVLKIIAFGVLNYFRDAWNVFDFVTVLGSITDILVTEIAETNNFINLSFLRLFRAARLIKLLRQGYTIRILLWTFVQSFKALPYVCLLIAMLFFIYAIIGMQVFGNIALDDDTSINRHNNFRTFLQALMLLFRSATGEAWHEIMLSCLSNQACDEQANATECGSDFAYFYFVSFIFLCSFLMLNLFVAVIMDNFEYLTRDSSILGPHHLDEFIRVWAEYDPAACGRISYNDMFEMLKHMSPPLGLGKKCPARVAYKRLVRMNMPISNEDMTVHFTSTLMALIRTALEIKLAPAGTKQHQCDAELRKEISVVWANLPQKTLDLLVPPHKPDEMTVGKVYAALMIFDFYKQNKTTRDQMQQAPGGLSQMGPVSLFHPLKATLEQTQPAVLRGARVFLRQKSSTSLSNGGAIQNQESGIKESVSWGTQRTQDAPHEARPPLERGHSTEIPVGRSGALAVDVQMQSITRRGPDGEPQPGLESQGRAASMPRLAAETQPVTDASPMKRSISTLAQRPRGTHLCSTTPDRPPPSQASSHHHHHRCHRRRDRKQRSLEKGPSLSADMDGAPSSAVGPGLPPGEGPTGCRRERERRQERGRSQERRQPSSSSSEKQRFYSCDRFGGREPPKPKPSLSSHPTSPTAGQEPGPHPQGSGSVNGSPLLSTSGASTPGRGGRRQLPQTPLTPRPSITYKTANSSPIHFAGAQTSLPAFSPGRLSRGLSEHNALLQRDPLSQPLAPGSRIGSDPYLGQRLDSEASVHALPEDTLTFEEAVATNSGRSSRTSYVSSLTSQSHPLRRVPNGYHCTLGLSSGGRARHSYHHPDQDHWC
N-type calcium channel (α1B (Cav2.2), β3 and α2δ subunits) in stable HEK cell line, sequence (P54284 whole entry partner): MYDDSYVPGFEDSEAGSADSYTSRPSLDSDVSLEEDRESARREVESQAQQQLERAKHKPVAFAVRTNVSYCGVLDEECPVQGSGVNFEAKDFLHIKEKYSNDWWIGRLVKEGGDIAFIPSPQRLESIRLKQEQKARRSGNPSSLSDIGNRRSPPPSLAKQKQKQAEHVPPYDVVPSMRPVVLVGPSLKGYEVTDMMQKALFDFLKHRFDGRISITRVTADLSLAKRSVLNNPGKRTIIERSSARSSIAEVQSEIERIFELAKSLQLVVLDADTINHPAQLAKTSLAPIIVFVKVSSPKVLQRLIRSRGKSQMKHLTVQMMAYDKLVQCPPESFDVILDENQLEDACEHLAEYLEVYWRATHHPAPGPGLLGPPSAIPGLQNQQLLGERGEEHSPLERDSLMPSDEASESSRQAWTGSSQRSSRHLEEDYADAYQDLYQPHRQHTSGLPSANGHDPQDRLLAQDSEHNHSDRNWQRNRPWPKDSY
N-type calcium channel (α1B (Cav2.2), β3 and α2δ subunits) in stable HEK cell line, sequence (P54289 25-1103 partner): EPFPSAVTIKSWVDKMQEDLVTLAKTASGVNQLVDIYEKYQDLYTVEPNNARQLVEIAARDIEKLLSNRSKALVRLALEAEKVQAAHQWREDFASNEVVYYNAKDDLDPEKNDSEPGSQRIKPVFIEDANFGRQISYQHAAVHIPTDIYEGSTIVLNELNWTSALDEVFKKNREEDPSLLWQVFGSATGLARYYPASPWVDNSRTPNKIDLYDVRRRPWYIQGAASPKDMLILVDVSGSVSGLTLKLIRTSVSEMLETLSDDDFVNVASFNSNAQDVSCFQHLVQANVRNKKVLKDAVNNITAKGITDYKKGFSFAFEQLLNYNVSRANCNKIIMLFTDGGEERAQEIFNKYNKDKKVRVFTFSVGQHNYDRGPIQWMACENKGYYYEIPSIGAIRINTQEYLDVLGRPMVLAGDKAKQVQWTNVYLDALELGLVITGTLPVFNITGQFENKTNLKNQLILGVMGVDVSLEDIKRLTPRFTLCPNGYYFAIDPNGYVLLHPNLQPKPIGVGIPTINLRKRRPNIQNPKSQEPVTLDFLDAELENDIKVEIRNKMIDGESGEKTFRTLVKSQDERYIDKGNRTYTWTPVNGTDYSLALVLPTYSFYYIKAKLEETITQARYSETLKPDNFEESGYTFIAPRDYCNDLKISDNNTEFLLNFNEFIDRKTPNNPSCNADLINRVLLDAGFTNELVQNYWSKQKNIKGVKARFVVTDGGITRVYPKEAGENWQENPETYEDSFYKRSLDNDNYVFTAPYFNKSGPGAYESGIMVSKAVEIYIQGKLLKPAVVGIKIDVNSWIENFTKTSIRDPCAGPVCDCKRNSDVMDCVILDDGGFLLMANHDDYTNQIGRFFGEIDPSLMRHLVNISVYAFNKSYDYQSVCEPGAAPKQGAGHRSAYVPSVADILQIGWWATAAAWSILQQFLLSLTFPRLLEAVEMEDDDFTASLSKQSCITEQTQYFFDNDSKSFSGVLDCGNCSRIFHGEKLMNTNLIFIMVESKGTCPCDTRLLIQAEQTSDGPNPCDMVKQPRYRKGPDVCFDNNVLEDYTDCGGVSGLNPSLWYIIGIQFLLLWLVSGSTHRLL

Consider `COc1ccccc1-n1nc(OC2CCN(C(=O)C(F)(F)F)CC2)cc1-c1ccc(Cl)cc1` [Compound 9, 4-{[5-(4-Chlorophenyl)-1-(2-methoxyphenyl)-1H-pyrazol-3-yl]oxy}-1-(trifluoroacetyl)piperidine], for which the IC50 stood at 31.4 nM.
In the case of `COc1ccccc1-n1nc(OC2CCN(S(=O)(=O)C(F)(F)F)CC2)cc1-c1ccc(Cl)cc1` [Compound 14, 4-{[5-(4-Chlorophenyl)-1-(2-methoxyphenyl)-1H-pyrazol-3-yl]oxy}-1-[(trifluoromethyl)sulfonyl]piperidine], the IC50 stood at 24 nM.
On the same count and under the same terms, the result for `COc1ccccc1-n1nc(OC2CCC(=O)CC2)cc1-c1ccc(Cl)cc1` [Compound 2, 4-{[5-(4-Chlorophenyl)-1-(2-methoxyphenyl)-1H-pyrazol-3-yl]oxy}cyclohexanone] reads 28 nM.
Take `COc1ccccc1-n1nc(O[C@H]2CC(C)(C)[S@+]([O-])C(C)(C)C2)cc1-c1ccc(Cl)cc1.O=C(O)C(F)(F)F` [Compound 38, (1r,4r)-4-((5-(4-chlorophenyl)-1-(2-methoxyphenyl)-1H-pyrazol-3-yl)oxy)-2,2,6,6-tetramethyltetrahydro-2H-thiopyran 1-oxide trifluoroacetate]: the IC50 amounted to 2.7 nM. The “% Inhibition (%) at 0.33 μM” value (FDSS, 0.33 μM compound) stood at 98%.
As for `CC(C)Oc1ccccc1-n1nc(OC2CCN(S(=O)(=O)C(C)C)CC2)cc1-c1ccc(Cl)cc1` [Compound 28, 4-({5-(4-Chlorophenyl)-1-[2-(1-methylethoxy)phenyl]-1H-pyrazol-3-yl}oxy)-1-[(1-methylethyl)sulfonyl]piperidine], the IC50 was found to be 7 nM. In addition, the inhibition at 0.33 µM (FDSS, 0.33 μM compound) amounted to 96%.
As to `COc1ccccc1-n1nc(OC2CCC(F)(F)CC2)cc1-c1ccc(Cl)cc1` [Compound 16, 5-(4-Chlorophenyl)-3-[(4,4-difluorocyclohexyl)oxy]-1-(2-methoxyphenyl)-1H-pyrazole], the IC50 stood at 41 nM.
Consider `CCc1ccccc1-n1nc(OC2CCN(S(C)(=O)=O)CC2)cc1-c1ccc(Cl)cc1` [Compound 19, 4-{[5-(4-Chlorophenyl)-1-(2-ethylphenyl)-1H-pyrazol-3-yl]oxy}-1-(methylsulfonyl)piperidine], for which the IC50 amounted to 98.5 nM.
Same read-out and setting: then `CCc1ccccc1-n1nc(OC2CCN(C(=O)OC(C)(C)C)CC2)cc1-c1ccc(Cl)cc1` [Compound 18, tert-Butyl 4-{[5-(4-chlorophenyl)-1-(2-ethylphenyl)-1H-pyrazol-3-yl]oxy}piperidine-1-carboxylate], with 50 nM.
As to `COc1ccc(-c2cc(OC3CC(C)(C)SC(C)(C)C3)nn2-c2ccccc2OC)cc1` [Compound 32, 1-(2-Methoxyphenyl)-5-(4-methoxyphenyl)-3-[(2,2,6,6-tetramethyltetrahydro-2H-thiopyran-4-yl)oxy]-1H-pyrazole], the IC50 is 6 nM. For the same compound, the inhibition at 0.33 µM (FDSS, 0.33 μM compound) was found to be 93%.
Consider `COc1ccccc1-n1nc(OC2CN(S(=O)(=O)C(C)C)C2)cc1-c1ccc(Cl)cc1` [Compound 25, 5-(4-Chlorophenyl)-1-(2-methoxyphenyl)-3-({1-[(1-methylethyl)sulfonyl]azetidin-3-yl}oxy)-1H-pyrazole], for which the IC50 is 36 nM. In addition, the inhibition at 0.33 µM (FDSS, 0.33 μM compound) was 92%.
Regarding `CC(C)(C)Oc1ccccc1-n1nc(OC2CCN(S(C)(=O)=O)CC2)cc1-c1ccc(Cl)cc1` [Compound 24, 4-{[1-(2-tert-Butoxyphenyl)-5-(4-chlorophenyl)-1H-pyrazol-3-yl]oxy}-1-(methylsulfonyl)piperidine], the inhibition at 0.33 µM (FDSS, 0.33 μM compound) is 57%.
Still for that read-out and setting: then `COc1ccccc1-n1nc(OC2CC(C)(C)C(=O)C(C)(C)C2)cc1-c1ccc(Cl)cc1` [Compound 41, 4-{[5-(4-Chlorophenyl)-1-(2-methoxyphenyl)-1H-pyrazol-3-yl]oxy}-2,2,6,6-tetramethylcyclohexanone], with 92%.
Take `COc1ccccc1-n1nc(O[C@H]2CC[C@@H](N)CC2)cc1-c1ccc(Cl)cc1` [Compound 12, cis-4-{[5-(4-Chlorophenyl)-1-(2-methoxyphenyl)-1H-pyrazol-3-yl]oxy}cyclohexanamine trifluoroacetate]: the IC50 was 400 nM.
Same read-out and setting: then `CCc1ccccc1-n1nc(OC2CCC3(CC2)OCCO3)cc1-c1ccc(Cl)cc1` [Compound 17, 5-(4-Chlorophenyl)-3-(1,4-dioxaspiro[4.5]dec-8-yloxy)-1-(2-ethylphenyl)-1H-pyrazole], with 81 nM; and `COc1ccccc1-n1nc(OC2CCN(S(C)(=O)=O)CC2)cc1-c1ccc(Cl)cc1` [Compound 5, 4-{[5-(4-Chlorophenyl)-1-(2-methoxyphenyl)-1H-pyrazol-3-yl]oxy}-1-(methylsulfonyl)piperidine], with 15 nM.

Broadly, the IC50 is the concentration at which inhibition is half-maximal. As usually defined, the inhibition is the change of the read-out against control, counted positive when it falls.
